Reference: patent publication US8697661B2, “Use of spinosyns and spinosyn compositions against herpesviridae viral infections” (priority 2009, dated 2014)

Key:
in vitro = conditions: mouse
[1] = test system: macrophage mice cell type J774; conditions: J774 CC50 over amastigote IC50
[2] = test system: Leishmania donovati MON-2 amastigotes; test: In vitro test against Leishmania amastigotes in J774 macrophages; conditions: Leishmania, J774, read-out: Amastigotes IC50
[3] = test system: Leishmania donovati MON-2 promastigotes; test: In vitro test against Leishmania promastigotes; conditions: Leishmania, read-out: Promastigotes IC50

IC50 [2] [µM] | IC50 [3] [µM] | Structure (SMILES) | CC50 (in vitro) [µM] | Selectivity Index CC50/IC50ama [1]
0.84 ± 0.04 | 0.87 ± 0.04 | CCCCCCCCCCCCCCCCOP(=O)([O-])OCC[N+](C)(C)C [Miltefosine] | 32.8 ± 5.1 | 39.04
12.8 ± 4 | 5.6 ± 0.6 | NC[C@@H]1O[C@H](O[C@H]2[C@@H](O)[C@H](O[C@@H]3[C@@H](O)[C@H](N)C[C@H](N)[C@H]3O[C@H]3O[C@H](CO)[C@@H](O)[C@H](O)[C@H]3N)O[C@@H]2CO)[C@H](N)[C@@H](O)[C@@H]1O [Aminosidine] | 448 ± 8.6 | 34.96
